# From patent US12459921B2, “Isoindoline compound, preparation method, pharmaceutical composition and use thereof” (SHANGHAI INSTITUTE OF MATERIA MEDICA, CHINESE ACADEMY OF …, priority 2018, dated 2025)
# Tested on: MM.1S cells
# Assay: Inhibitory effect on the proliferation of MM.1S, MTS cell viability test
# Type: cell-based
# Conditions: Homo sapiens, MM1.S, 168 h, multiple myeloma MM.1S cells, 7 days incubation, read-out: Tumor cell inhibitory activity
# Method: Method of tumor cell proliferation inhibition test: the inventors tested all the example compounds on hematologic tumor cells, multiple myeloma MMTs cell line and acute leukemia cell MV-4-11 cell line of some examples. The activity test method and results are as follows.
# 1. The Compound's Inhibitory Effect on the Proliferation of MM.1S, MTS Cell Viability Test:
# MM.1S cells were cultured and collected with 1640 plus 10% fetal bovine serum. The cell concentration was diluted according to 7 days, and 180 ul cell suspension was added to each well of the 96-well cell plate to 20,000 cells. 20 ul of DMSO with a final concentration of 0.2% was added to the control wells. The compound was 5-fold diluted—from the 10 mM stock solution, and 20 ul was also added to each compound cell well (the final concentration of DMSO was 0.2%). The cells were placed in a 37° C., 5% CO2 incubator to incubate for 7 days. After the reaction solution was prepared according to the MTS kit (Promega, G5430), 20 μL was added to each well and incubated in a 37° C., 5% CO2 incubator for 3-4 h. Absorbance value at 490 nm was read with a microtiter plate, and 690 nm absorbance value was used as the background value. OD490-OD690 was used as the final initial data. The formula for calculating the inhibition rate of the compound is: inhibition rate=(ODDMSO-ODcompound)/(ODDMSO-Oblank)×100%. The compound's proliferation inhibition IC50 was fitted by Graph Pad Prism 5.0. The experiment was repeated three times, and the average and standard deviation was calculated according to the three parallel experiments.
# Cell viability test results: **** represents cell viability IC50>20 μM, […] represents cell viability 1 μM<IC50<20 μM, ** represents cell viability 100 nM<IC50<1 μM, * represents cell viability IC50<100 nM.
row,Compound,IC50
1,"COc1ccc(C2(C#N)CCN(CCCCCc3cccc4c3CN(C3CCC(=O)NC3=O)C4=O)CC2)c(OC)c1OC (centres unmarked) [Example 254, 1-(5-(2-(2,6-dioxopiperidin-3-yl)-1-oxoisoindolin-4-yl)pentyl)-4-(2,3,4-trimethoxyphenyl)piperidine-4-carbonitrile]",1000 to 20000 nM
2,"N#CC1(c2ccc(OC3COC3)cc2)CCN(CCCCCc2cccc3c2CN(C2CCC(=O)NC2=O)C3=O)CC1 (centres unmarked) [Example 270, 1-(5-(2-(2,6-dioxopiperidin-3-yl)-1-oxoisoindolin-4-yl)pentyl)-4-(4-(oxetan-3-yloxy)phenyl)piperidine-4-carbonitrile]",100 to 1000 nM
3,"C[C@]1(N2C(=O)c3cccc(OCCCN4CCC(C#N)(c5ccccc5Cl)CC4)c3C2=O)CCC(=O)NC1=O [Example 50, (S)-4-(2-chlorophenyl)-1-(3-((2-(3-methyl-2,6-dioxopiperidine-3-)-1,3-dioxoisoindoline-4-)oxy)propyl)piperidine-4-carbonitrile]",1000 to 20000 nM
4,"O=C1CCC(N2Cc3c(OCCCCC(=O)N4CCCc5ccccc54)cccc3C2=O)C(=O)N1 (centres unmarked) [Example 119, 3-(4-((5-(3,4-dihydroquinoline-1(2H)-)-5-oxopentyl)oxy)-1-oxoisoindoline-2-)piperidine-2,6-dione]",< 100 nM
5,"CC(=O)N[C@@H](CCCc1cccc2c1CN(C1CCC(=O)NC1=O)C2=O)C(=O)NC(C)(C)C (stereo partly drawn) [Example 168, (2S)-2-acetylamino-N-tert-butyl-(2-(2,6-dioxopiperidine-3-)-1-oxoisoindoline-4-)pentanamide]",1000 to 20000 nM
6,"C[C@]1(N2Cc3c(OCCCN4CCC(C#N)(c5ccccc5OC(F)(F)F)CC4)cccc3C2=O)CCC(=O)NC1=O [Example 56, (S)-1-(3-((2-(3-methyl-2,6-dioxopiperidine-3-)-1-oxoisoindoline-4-)oxy)propyl)-4-(2-(trifluoromethoxy)phenyl)piperidine-4-carbonitrile]",1000 to 20000 nM
7,"N#Cc1ccc(C2(C#N)CCN(CCCOc3cccc4c3CN(C3CCC(=O)NC3=O)C4=O)CC2)cc1 (centres unmarked) [Example 69, 4-(4-cyanophenyl)-1-(3-((2-(2,6-dioxopiperidine-3-)-1-oxoisoindoline-4-)oxy)propyl)piperidine-4-carbonitrile]",100 to 1000 nM
8,O=C1CCC(N2Cc3c(CCCCCOc4cccc5cnccc45)cccc3C2=O)C(=O)N1 (centres unmarked) [Example 5],100 to 1000 nM
9,"O=C1CCC(N2Cc3c(OCCCCCOc4ccnc5ccccc45)cccc3C2=O)C(=O)N1 (centres unmarked) [Example 12, 3-(1-oxo-4-((5-(quinoline-4-oxy)pentyl)oxy)isoindoline-2-)piperidine-2,6-dione]",100 to 1000 nM
10,"COc1ccc2c(c1)C1(CCN(CCCCCc3cccc4c3CN(C3CCC(=O)NC3=O)C4=O)CC1)C(=O)N2 (centres unmarked) [Example 135, 3-(4-(5-(5-methoxy-2-oxospiro[indoline-3,4′-piperidine]-1′-)pentyl)-1-oxoisoindoline-2-)piperidine-2,6-dione]",100 to 1000 nM
11,"Cc1ccc(NC(=O)[C@H](CCCc2cccc3c2CN(C2CCC(=O)NC2=O)C3=O)NC(=O)CCCCCN)cc1Cl (stereo partly drawn) [Example 189, 6-amino-N-((2S)-1-((3-chloro-4-methylphenyl)amino)-5-(2-(2,6-dioxopiperidine-3-)-1-oxoisoindoline-4-)-1-oxopentyl-2-)hexanamide]",100 to 1000 nM
12,O=C1CCC(N2Cc3c(OCCCNC(=O)N4CCN(c5cccc(Cl)c5Cl)CC4)cccc3C2=O)C(=O)N1 (centres unmarked) [Example 34],1000 to 20000 nM
13,"O=C1CCC(N2Cc3c(CCCCN4CCN(c5ccccc5[N+](=O)[O-])CC4)cccc3C2=O)C(=O)N1 (centres unmarked) [Example 216, 3-(4-(4-(4-(2-nitrophenyl)piperazine-1-yl)butyl)-1-oxoisoindoline-2-yl) piperidine-2,6-dione]",< 100 nM
14,"CC(=O)N[C@@H](CCCc1cccc2c1CN(C1CCC(=O)NC1=O)C2=O)C(=O)NCc1ccc(F)cc1F (stereo partly drawn) [Example 178, (2S)-2-acetylamino-N-(2,4-difluorobenzyl)-5-(2-(2,6-dioxopiperidine-3-)-1-oxoisoindoline-4-)oxoisoindoline]",100 to 1000 nM
